Data on seven compounds can be found in ChEMBL document CHEMBL1201862, “PubChem BioAssay data set” (2004).

In general, IC50 refers to the concentration that gives 50% inhibition. By AC50 is commonly meant the concentration giving half of the maximal activity seen. Broadly, the EC50 is the concentration needed to bring the measured effect to its halfway point.

One assay has as its target Phospholipase A2 (Homo sapiens, UniProt P04054). It counts as functional.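 Also: confirmatory dose-response counterscreen on phospholipase A2, testing hits that came from an ultra-high-throughput screen for ATG4B inhibitors.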
The target in assay [1] is Heat shock protein HSP 90-alpha (Homo sapiens, UniProt P07900). It counts as functional, organism-based.
In assay [2] the target is T1, Replicative DNA helicase DnaB (Mycobacterium tuberculosis, UniProt P9WMR3).
T1 sequence (P9WMR3 whole entry): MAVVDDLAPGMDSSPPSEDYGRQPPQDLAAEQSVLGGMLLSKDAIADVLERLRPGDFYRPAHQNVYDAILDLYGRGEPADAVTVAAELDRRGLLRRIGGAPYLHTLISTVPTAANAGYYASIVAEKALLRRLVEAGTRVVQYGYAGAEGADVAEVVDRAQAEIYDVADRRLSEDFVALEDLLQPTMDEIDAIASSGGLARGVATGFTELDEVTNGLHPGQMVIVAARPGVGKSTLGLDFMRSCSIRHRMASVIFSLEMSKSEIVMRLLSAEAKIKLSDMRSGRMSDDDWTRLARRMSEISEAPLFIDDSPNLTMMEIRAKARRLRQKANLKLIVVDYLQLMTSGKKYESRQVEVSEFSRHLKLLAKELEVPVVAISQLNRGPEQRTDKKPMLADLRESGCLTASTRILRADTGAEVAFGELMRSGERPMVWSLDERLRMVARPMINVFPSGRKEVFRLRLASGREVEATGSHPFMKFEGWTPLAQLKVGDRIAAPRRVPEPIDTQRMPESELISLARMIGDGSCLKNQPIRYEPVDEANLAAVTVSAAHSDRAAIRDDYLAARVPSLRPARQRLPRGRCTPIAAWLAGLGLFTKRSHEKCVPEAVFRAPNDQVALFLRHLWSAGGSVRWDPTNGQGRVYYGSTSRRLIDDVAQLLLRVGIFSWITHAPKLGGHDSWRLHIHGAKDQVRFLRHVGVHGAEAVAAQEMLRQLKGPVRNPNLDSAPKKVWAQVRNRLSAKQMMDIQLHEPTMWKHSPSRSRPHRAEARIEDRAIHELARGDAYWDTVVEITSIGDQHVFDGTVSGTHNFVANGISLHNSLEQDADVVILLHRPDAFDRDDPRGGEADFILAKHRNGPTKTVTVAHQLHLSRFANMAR
Nature of the assay: DnaB intein splicing inhibitors, dose response, biochemical, cell-free fluorescence (AID 449749). It counts as functional.

The target in a further assay is Genome polyprotein (dengue virus type 2, UniProt P29990). In words: Dengue-2 NS5 methyltransferase inhibitors, primary screen, biochemical, confirmation dose response (AID 588689). It counts as functional.
Chain of Genome polyprotein (P29990 2492-3391 limits assumed): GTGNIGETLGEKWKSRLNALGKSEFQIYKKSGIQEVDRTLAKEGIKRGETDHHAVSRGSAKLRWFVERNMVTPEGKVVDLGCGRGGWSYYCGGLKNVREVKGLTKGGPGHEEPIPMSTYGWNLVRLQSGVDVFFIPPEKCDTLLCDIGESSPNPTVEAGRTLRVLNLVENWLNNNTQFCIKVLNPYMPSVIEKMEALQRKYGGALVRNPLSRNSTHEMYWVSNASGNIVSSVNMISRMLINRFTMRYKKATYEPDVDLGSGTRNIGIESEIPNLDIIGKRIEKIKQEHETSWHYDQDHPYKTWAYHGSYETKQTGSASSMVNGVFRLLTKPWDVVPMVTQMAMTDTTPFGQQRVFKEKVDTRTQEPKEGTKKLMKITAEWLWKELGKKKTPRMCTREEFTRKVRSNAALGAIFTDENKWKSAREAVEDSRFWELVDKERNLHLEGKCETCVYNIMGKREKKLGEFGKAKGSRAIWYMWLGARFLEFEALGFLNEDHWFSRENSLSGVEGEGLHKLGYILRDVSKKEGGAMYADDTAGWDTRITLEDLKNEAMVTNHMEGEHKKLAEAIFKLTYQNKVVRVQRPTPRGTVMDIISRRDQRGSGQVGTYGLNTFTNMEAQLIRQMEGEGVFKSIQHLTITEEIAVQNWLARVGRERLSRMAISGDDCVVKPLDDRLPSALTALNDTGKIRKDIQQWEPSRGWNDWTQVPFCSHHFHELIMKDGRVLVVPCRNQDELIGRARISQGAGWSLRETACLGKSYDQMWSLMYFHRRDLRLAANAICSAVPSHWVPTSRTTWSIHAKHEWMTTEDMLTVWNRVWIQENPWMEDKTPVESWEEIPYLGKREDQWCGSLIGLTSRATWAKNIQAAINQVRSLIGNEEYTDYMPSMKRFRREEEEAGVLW
In a further assay the target is T2, Protein RecA (Mycobacterium tuberculosis, UniProt P9WHJ3).
T2 sequence (P9WHJ3 whole entry): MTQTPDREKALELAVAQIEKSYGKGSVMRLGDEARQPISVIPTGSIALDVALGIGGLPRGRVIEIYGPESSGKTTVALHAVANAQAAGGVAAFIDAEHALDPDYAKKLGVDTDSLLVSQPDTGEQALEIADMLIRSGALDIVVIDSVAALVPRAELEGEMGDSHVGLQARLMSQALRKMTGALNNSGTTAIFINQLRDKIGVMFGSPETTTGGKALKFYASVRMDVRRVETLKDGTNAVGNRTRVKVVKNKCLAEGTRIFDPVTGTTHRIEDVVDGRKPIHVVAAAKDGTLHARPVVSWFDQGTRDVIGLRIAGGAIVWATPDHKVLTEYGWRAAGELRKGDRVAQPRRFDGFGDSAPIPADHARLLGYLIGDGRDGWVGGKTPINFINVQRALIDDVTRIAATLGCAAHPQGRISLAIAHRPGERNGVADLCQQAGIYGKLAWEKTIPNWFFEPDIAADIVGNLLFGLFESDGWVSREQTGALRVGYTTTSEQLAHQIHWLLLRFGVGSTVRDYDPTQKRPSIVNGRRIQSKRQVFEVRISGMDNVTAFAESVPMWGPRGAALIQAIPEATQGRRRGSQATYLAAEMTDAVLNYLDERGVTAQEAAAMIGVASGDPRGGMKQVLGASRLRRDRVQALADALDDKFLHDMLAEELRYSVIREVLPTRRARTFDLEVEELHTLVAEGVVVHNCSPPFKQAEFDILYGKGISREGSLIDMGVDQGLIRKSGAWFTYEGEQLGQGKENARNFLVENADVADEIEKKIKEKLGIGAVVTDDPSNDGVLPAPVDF
Nature of the assay: Fluorescence Cell-Free Homogeneous Dose Retest to Identify Inhibitors of RecA-Intein Splicing Activity. [Related pubchem assays (depositor defined):AID2097, AID2223, AID489010, AID492950]. It counts as functional.

The target of the next assay is Nonstructural protein 1 (Influenza A virus, UniProt Q194T2). It counts as functional, Influenza A virus (A/California/07/2009(H1N1)).
Chain of Nonstructural protein 1 (Q194T2 whole entry): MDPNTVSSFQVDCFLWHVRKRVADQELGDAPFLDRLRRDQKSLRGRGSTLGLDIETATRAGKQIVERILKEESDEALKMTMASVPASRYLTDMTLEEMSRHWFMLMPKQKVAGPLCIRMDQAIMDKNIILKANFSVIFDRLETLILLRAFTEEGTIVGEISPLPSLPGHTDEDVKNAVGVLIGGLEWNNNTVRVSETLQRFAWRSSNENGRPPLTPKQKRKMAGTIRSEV
Assay [3] concerns the target 72 kDa type IV collagenase (Homo sapiens, UniProt P08253). In words: Dose Response validation of uHTS RPN11 inhibitor hits using a MMP-2 Fluorescence assay. It counts as functional.
The target in assay [4] is T3, High affinity choline transporter 1 (Homo sapiens, UniProt Q9GZV3).
T3 sequence (Q9GZV3 whole entry): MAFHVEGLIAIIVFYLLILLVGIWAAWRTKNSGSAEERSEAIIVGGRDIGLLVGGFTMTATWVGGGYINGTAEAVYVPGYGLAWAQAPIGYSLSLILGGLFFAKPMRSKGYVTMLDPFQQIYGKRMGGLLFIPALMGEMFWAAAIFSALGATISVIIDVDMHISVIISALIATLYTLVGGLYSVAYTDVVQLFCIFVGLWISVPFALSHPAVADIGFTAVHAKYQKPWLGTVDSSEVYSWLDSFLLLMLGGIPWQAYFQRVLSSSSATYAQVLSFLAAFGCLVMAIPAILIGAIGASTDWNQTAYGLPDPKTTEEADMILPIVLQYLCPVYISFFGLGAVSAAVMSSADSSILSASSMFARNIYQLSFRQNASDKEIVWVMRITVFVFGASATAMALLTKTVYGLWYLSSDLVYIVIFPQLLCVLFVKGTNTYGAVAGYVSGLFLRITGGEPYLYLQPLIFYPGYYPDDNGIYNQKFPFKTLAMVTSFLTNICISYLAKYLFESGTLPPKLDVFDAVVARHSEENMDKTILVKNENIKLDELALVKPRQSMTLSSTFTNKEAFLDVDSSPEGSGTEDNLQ
In words: CHT inhibitors, dose response, cell-based, 5-point CRC, membrane potential dye (AID 504840). It counts as functional.

In the next assay the target is Prothrombin (Bos taurus, UniProt P00735). In words: thrombin inhibition, dose response, biochemical, fluorescence polarization, uHTS hits (AID 602369). It counts as functional. (In general: Polarisation of emitted light reports the rotation of a fluorescent probe.)
In assay [5] the target is 26S proteasome non-ATPase regulatory subunit 14 (Homo sapiens, UniProt O00487). Nature of the assay: inhibition of proteasome subunit RPN11 – biochemical, fluorescence polarization, uHTS hits, confirmation (AID 602368). It counts as functional.
Chain of 26S proteasome non-ATPase regulatory subunit 14 (O00487 whole entry): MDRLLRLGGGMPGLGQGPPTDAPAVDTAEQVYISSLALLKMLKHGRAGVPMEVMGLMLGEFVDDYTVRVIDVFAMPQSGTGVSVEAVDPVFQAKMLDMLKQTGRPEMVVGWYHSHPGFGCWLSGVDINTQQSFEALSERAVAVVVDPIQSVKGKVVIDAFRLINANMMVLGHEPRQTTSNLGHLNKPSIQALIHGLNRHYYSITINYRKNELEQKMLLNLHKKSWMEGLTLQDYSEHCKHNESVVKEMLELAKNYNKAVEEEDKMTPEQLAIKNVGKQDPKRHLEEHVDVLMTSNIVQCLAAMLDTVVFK
The target in assay [6] is T4, RNA-binding protein pos-1 (Caenorhabditis elegans, UniProt G5EF15).
T4 sequence (G5EF15 whole entry): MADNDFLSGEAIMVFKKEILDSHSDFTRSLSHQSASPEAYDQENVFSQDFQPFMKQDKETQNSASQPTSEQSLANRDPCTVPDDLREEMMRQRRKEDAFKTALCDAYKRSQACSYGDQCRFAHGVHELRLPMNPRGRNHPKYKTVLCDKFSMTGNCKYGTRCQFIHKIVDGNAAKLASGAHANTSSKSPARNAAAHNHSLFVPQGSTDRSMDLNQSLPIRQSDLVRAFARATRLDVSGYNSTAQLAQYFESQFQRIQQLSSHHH
In words: inhibitors of POS-1/mex-3 RNA binding, dose response, biochemical, fluorescence polarization (AID 1964).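 Also: purified POS-1 fused to maltose binding protein made in E. coli; potency of compounds blocking POS-1 binding to fluorescent RNA.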

Assay [7] deals with T5, Zinc finger protein mex-5 (Caenorhabditis elegans, UniProt Q9XUB2).
T5 sequence (Q9XUB2 whole entry): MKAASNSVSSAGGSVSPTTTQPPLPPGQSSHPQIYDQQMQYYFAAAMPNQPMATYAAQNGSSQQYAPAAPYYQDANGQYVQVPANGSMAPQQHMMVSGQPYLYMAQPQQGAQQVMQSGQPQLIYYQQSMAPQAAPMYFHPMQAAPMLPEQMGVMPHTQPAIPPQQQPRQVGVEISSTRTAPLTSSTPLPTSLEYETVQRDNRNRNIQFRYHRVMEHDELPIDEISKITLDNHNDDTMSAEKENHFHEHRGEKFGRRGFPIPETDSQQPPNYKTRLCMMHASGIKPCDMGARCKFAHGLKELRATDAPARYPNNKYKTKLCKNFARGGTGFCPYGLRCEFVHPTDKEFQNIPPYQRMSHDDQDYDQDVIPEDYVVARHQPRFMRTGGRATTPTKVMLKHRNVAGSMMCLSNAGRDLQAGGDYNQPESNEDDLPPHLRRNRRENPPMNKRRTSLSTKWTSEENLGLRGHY
Nature of the assay: MEX-5/TCR-2 RNA interaction inhibitors, dose response, biochemical, C. elegans, fluorescence polarization (AID 1960).

In assay [8] the target is T6, Heat shock factor protein 1 (Mus musculus, UniProt P38532).
T6 sequence (P38532 whole entry): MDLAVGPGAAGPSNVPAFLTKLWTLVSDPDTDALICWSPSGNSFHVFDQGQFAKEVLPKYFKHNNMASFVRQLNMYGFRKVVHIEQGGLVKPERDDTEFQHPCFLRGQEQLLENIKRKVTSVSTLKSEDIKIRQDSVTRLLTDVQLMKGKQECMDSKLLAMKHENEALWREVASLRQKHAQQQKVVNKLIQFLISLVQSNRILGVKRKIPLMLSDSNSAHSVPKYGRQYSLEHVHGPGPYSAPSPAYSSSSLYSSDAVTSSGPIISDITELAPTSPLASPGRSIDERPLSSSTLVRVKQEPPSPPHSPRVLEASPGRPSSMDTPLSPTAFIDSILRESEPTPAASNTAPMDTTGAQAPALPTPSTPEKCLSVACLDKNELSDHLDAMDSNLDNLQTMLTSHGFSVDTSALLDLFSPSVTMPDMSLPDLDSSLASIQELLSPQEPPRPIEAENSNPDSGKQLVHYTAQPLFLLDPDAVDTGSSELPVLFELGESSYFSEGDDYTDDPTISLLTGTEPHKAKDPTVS
In words: inhibition of MG132-induced HSE-luciferase signal, confirmation, cell-based, NIH3T3, luminescence, dose retest (AID 2382).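 Also: NIH3T3 fibroblasts with HSF1-driven luciferase reporter stressed by proteasome inhibitor MG132; luminescence from HSF1-driven luciferase expression after 8 hours of MG132 stress.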 It counts as functional.

A short description of assay [9]: StAR promoter reporter inhibition counter-screen, dose response, counter-screen for LRH-1 inverse agonist project, cell-based, luminescence, luciferase reporter (AID 651969). It counts as functional. For orientation: A counterscreen serves to expose hits that act by an unwanted route or on another target.
Assay [10] addresses T7, Carboxy-terminal domain RNA polymerase II polypeptide A small phosphatase 1 (Homo sapiens, UniProt Q9GZU7).
T7 sequence (Q9GZU7 whole entry): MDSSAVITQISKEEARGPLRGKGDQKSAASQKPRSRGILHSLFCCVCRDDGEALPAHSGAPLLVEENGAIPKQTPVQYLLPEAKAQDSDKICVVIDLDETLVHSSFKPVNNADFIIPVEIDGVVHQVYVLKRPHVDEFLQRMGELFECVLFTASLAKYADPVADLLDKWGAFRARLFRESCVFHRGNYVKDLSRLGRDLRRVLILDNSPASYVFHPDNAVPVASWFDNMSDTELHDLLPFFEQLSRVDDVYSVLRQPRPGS
Nature of the assay: inhibitors of CTDSP1, concentration-response testing, biochemical assay, absorbance-based, actives from ultra-high-throughput screening (AID 540297). It counts as functional.

Activity calls are given as the source filed them.

Chain of 72 kDa type IV collagenase (P08253 whole entry): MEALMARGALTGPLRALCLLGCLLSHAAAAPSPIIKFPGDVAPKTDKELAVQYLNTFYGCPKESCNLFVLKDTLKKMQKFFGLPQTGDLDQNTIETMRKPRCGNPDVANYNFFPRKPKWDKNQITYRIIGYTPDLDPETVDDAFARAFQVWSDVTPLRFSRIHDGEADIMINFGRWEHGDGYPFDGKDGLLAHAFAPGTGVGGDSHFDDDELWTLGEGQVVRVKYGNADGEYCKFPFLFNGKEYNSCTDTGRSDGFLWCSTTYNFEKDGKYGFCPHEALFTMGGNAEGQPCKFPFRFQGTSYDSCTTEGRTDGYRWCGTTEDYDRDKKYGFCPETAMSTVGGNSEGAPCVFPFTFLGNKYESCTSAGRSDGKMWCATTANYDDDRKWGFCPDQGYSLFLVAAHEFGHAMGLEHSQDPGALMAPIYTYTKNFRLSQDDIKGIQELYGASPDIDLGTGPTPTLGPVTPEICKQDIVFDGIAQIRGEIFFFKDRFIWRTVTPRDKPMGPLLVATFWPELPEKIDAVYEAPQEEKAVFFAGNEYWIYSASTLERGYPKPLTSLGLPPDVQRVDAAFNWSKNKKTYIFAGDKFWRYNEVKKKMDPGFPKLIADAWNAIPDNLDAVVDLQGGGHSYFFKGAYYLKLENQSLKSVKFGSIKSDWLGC
Chain of Phospholipase A2 (P04054 whole entry): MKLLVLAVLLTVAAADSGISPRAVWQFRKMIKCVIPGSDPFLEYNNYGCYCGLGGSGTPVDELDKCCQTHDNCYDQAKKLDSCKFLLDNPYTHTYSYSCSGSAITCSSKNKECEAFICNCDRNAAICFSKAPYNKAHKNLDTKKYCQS

For the compound `CCCOc1ccc2ccccc2c1/C=C1\SC(=O)NC1=O`, on Phospholipase A2, the IC50 is 15.9 µM (active). For the same compound, in assay [1], the half-maximal activity concentration (AC50) is 6.89 µM (active).
With `CCOc1c(Br)cc(/C=C2\C(=O)N(CCC#N)N=C2C)cc1OC`, the half-maximal activity concentration (AC50) in [2] was 3.43 µM (active). Also, the IC50 on Genome polyprotein was > 100 µM (active). The half-maximal effective concentration (EC50) at Protein RecA was 1.8 µM (active).
As for `COc1cc(/C=C2/C(=O)N(c3cccc(Br)c3)N=C2C)cc(OC)c1O`, the concentration for half-maximal inhibition (IC50) was 14.5 µM (active) on Nonstructural protein 1; > 100 µM (inactive) in assay [3]; 13.8 µM (active) in assay [4]; 39 µM (active) at Prothrombin; 23.1 µM (active) in [5]. For the same compound, the AC50 in assay [2] was 3.93 µM (active). Also, the EC50 at Protein RecA is 1.6 µM (active).
As for `Cc1ccc(N2C(=O)NC(=O)/C(=C\c3cc(C)n(-c4ccc(C(=O)O)cc4)c3C)C2=O)cc1`, the EC50 in assay [6] is > 300 µM (not active); in [7] it was 6.96 µM (active). Also, on Genome polyprotein, the IC50 is > 100 µM (active).
Take `COc1ccc(CNC(=O)c2nnn(CC(=O)Nc3cc(C)cc(C)c3)c2N)cc1`: the half-maximal effective concentration (EC50) in assay [8] was > 195 µM (not active). In addition, the IC50 was > 100 µM (inactive) in assay [3], 63 µM (active) at Prothrombin and 18.9 µM (active) in [5].
As for `COc1ccc(NC(=O)CSc2sc3c(O)cc(O)nc3c2C#N)c(OC)c1`, the IC50 in assay [9] was 35.9 µM (inactive).
For the compound `CSc1ccc(NC(=O)CSc2nc3[nH]c(=O)cc(O)c3s2)cc1`, the IC50 in [3] is 40.4 µM (active); at Prothrombin, 88.3 µM (active); in assay [10] it was 4.06 µM (active); in [5], 68 µM (active).
